Experimental data published in ChEMBL document CHEMBL5614401 (Eur J Med Chem, 2024).
Active and inactive are the calls of the source. No cut-off for these calls is given here.

Key:
[1] = molecular target: T1, Solute carrier family 22 member 12 (Homo sapiens, UniProt Q96S37); experiment: Inhibition of human URAT1 transfected in HEK293 cells by measuring 14C-uric acid uptake preincubated for 30 mins followed by 14--uric acid addition and measured after 15 mins by liquid scintillation counter analysis; assay type: cell-based
T1 sequence (Q96S37 whole entry): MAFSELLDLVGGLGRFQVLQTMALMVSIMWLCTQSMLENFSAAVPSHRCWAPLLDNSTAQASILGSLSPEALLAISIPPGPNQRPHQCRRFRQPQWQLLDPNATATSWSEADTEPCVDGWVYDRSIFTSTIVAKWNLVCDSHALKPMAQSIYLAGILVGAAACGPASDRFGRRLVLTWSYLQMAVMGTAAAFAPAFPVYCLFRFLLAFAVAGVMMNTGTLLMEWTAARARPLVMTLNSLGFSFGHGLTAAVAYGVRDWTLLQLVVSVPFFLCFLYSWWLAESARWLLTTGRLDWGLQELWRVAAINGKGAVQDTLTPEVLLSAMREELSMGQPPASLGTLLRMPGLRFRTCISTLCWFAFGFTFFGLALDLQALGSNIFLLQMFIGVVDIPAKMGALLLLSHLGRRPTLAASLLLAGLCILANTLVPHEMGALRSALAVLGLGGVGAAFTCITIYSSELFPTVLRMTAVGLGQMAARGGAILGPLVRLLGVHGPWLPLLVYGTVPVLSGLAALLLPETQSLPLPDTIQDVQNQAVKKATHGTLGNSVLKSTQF

[2] = molecular target: T2, Solute carrier family 2, facilitated glucose transporter member 9 (Homo sapiens) (UniProt Q9NRM0); experiment: Inhibition of GLUT9 (unknown origin) overexpressed in uric acid-induced HEK293 cells at 25 uM by patch clamp analysis relative to control; assay type: cell-based
T2 sequence (whole entry): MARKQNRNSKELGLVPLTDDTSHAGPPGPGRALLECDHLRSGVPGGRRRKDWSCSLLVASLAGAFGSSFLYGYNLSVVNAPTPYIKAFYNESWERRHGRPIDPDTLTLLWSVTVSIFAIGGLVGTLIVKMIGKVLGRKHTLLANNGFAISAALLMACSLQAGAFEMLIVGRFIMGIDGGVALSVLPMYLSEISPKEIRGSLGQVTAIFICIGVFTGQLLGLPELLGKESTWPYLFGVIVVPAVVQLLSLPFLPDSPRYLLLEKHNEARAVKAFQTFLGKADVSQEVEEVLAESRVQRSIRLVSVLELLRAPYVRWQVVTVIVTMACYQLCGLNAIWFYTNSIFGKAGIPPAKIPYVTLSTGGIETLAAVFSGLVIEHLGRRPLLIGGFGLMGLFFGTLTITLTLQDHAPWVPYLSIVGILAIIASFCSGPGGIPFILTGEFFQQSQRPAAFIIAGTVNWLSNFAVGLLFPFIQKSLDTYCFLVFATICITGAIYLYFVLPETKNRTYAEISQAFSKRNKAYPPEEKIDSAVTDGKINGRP

[3] = molecular target: T3, Solute carrier family 2, facilitated glucose transporter member 9 (Homo sapiens, UniProt Q9NRM0); experiment: Inhibition of GLUT9 (unknown origin) overexpressed in uric acid-induced HEK293 cells by patch clamp analysis; assay type: cell-based
T3 sequence (Q9NRM0 whole entry): T2 sequence (whole entry)

Mus musculus [4] = experiment: (§1) Anti-hyperuricemic activity against potassium oxonate-induced male Kunming mouse model assessed as reduction in serum uric acid level at 10 mg/kg, po via gavage administered 1 hr post-potassium oxonate challenge and measured after 7 days on day 7 potassium oxonate injected after 12 hrs fasting and measured followed by 1.5 hrs of compound administration; assay type: functional; details: time 7 day
Mus musculus [5] = experiment: as §1, with “increase” for “reduction”, “urine” for “serum”, “administration (reference value: 481.6 microM)” for “administration”; assay type: functional
HK-2 [6] = experiment: Cytotoxicity against human HK-2 cells assessed as cell viability at <100 uM incubated for 24 hrs by MTT assay; assay type: toxicity, cell-based; details: hk-2, 24 h
[7] = Cytotoxicity against human HK-2 cells assessed as cell viability at 100 uM incubated for 48 hrs by MTT assay relative to control; assay type: toxicity, cell-based; details: read-out: Activity
[8] = (§2) Renal toxicity in potassium oxonate-induced male Kunming mouse model assessed as reduction in CR level in serum at 10 mg/kg,po via gavage administered 1 hr post-potassium oxonate challenge and measured after 7 days on day 7 potassium oxonate injected after 12 hrs fasting and measured followed by 1.5 hrs of compound administration by biochemical analyzer; assay type: organism-based; details: in vivo, 168 h, time 7 day
[9] = as §2, with “BUN” for “CR”; assay type: organism-based; details: in vivo, 168 h, time 7 day
[10] = as §2, with “effect on kidney damage” for “reduction in CR level in serum”, “administration” for “administration by biochemical analyzer”; assay type: organism-based; details: in vivo, 168 h, time 7 day
Mus musculus [11] = experiment: as §1, with “alleviation of renal tubule dilatation” for “reduction in serum uric acid level”, “administration by H and E staining based analysis” for “administration”; assay type: functional, organism-based; details: time 7.0 day
Mus musculus [12] = experiment: as §1, with “alleviation of casts formation” for “reduction”, “kidney” for “serum uric acid level”, “administration by H and E staining based analysis” for “administration”; assay type: functional, organism-based; details: time 7.0 day
Mus musculus [13] = experiment: as §1, with “alleviation of glomerular ischemia” for “reduction”, “kidney” for “serum uric acid level”, “administration by H and E staining based analysis” for “administration”; assay type: functional, organism-based; details: time 7.0 day
Mus musculus [14] = experiment: as §1, with “alleviation of shrinkage” for “reduction”, “kidney” for “serum uric acid level”, “administration by H and E staining based analysis” for “administration”; assay type: functional, organism-based; details: time 7.0 day
[15] = Tmax in male Sprague-Dawley rat at 10 mg/kg, po measured after 24 hrs by LC-MS/MS analysis; assay type: ADME, organism-based; details: in vivo
[16] = Cmax in male Sprague-Dawley rat at 10 mg/kg, po measured after 24 hrs by LC-MS/MS analysis; assay type: ADME, organism-based; details: in vivo
[17] = Half life in male Sprague-Dawley rat at 10 mg/kg, po measured after 24 hrs by LC-MS/MS analysis; assay type: ADME, organism-based; details: in vivo
[18] = AUC (0 to infinity) in male Sprague-Dawley rat at 10 mg/kg, po measured after 24 hrs by LC-MS/MS analysis; assay type: ADME, organism-based; details: in vivo
[19] = MRT (0 to infinity) in male Sprague-Dawley rat at 10 mg/kg, po measured after 24 hrs by LC-MS/MS analysis; assay type: ADME, organism-based; details: in vivo
[20] = molecular target: T1, Solute carrier family 22 member 12; experiment: Inhibition of human URAT1 transfected in HEK293 cells by measuring 14C-uric acid uptake at 5 uM preincubated for 30 mins followed by 14--uric acid addition and measured after 15 mins by liquid scintillation counter analysis relative to control; assay type: cell-based; details: 0.25 h, time 45 min
HK-2 [21] = experiment: Cytotoxicity against human HK-2 cells assessed as cell viability at 100 uM incubated for 48 hrs by MTT assay; assay type: toxicity, cell-based; details: hk-2, 48 h
[22] = molecular target: T1, Solute carrier family 22 member 12; experiment: Inhibition of URAT1 (unknown origin)

Molecule `C/C(=C\Cc1cccc2c1OC(c1ccsc1)CC2=O)C(=O)O` (stereo not given) has an IC50 [1] of 2180 nM.
`C/C(=C\Cc1cccc2c1OC(c1ccc(Br)c3ccccc13)CC2=O)C(=O)O` (stereo not given) showed an IC50 [1] of 160 nM, an inhibition [2] of 91% and an IC50 [3] of 4470 nM. For the same molecule, the Activity (Mus musculus [4]) was 319.1 µM, the Activity (Mus musculus [5]; time 7 day) was 642.1 µM and the Activity (HK-2 [6]) was “Toxic”. For the same molecule, the viability at 48 h, 100 µM [7] was 62.1%, the Activity [8] was “Non-Toxic” and the Activity [9] was “Non-Toxic”. For the same molecule, the Activity [10] was “Non-Toxic”, the Activity (Mus musculus [11]) was “Active” and the Activity (Mus musculus [12]) was “Active”. The Activity (Mus musculus [13]) was “Active”, the Activity (Mus musculus [14]) was “Active” and the Tmax [15] was 1.15 h. It also gave a Cmax [16] of 2250 ng/mL, a half-life [17] of 7.88 h and an AUC(0-inf) [18] of 18700 ng·h/mL. For the same molecule, the MRT inf [19] was 10.2 h.
Molecule `CC(C)=CCc1c(O)ccc2c1OC(c1ccc(Cl)cc1)CC2=O` (stereo not given) has an inhibition at 5 µM [20] of 11.3%.
`C/C(=C\Cc1c(O)ccc2c1OC(c1ccc(Br)c3ccccc13)CC2=O)C(=O)O` (stereo not given) gave an IC50 [1] of 190 nM, an inhibition [2] of 8.21% and an Activity (Mus musculus [4]) of 397.87 µM. For the same molecule, the Activity (Mus musculus [5]; time 7.0 day) was “Active”, the Activity (HK-2 [6]) was “Toxic” and the Activity (HK-2 [21]) was “Non-Toxic”. The Activity [8] was “Non-Toxic”, the Activity [9] was “Non-Toxic” and the Activity [10] was “Non-Toxic”. The Activity (Mus musculus [11]) was “Active”, the Activity (Mus musculus [12]) was “Active” and the Activity (Mus musculus [13]) was “Active”. The Activity (Mus musculus [14]) was “Active”, the Tmax [15] was 1.5 h and the Cmax [16] was 1380 ng/mL. The half-life [17] was 4.66 h, the AUC(0-inf) [18] was 8270 ng·h/mL and the MRT inf [19] was 7.54 h.
With `C/C(=C\Cc1cccc2c1OC(c1ccc(O)cc1)CC2=O)C(=O)O` (stereo not given) the IC50 [1] was 2680 nM.
`CC(C)(Sc1ccncc1Cc1ccc(C#N)c2ccccc12)C(=O)O` gave an IC50 [22] of 2080 nM.
Work on `C/C(=C\Cc1cccc2c1OC(c1cccs1)CC2=O)C(=O)O` (stereo not given) yielded an IC50 [1] of 860 nM, an inhibition [2] of 22.7% and an Activity (Mus musculus [4]) of 317.1 µM. The Activity (Mus musculus [5]; time 7 day) was 648.21 µM, the Activity (HK-2 [6]) was “Toxic” and the Activity (HK-2 [21]) was “Non-Toxic”. For the same molecule, the Activity [8] was “Non-Toxic”, the Activity [9] was “Non-Toxic” and the Activity [10] was “Non-Toxic”. The Activity (Mus musculus [11]) was “Active”, the Activity (Mus musculus [12]) was “Active” and the Activity (Mus musculus [13]) was “Active”. For the same molecule, the Activity (Mus musculus [14]) was “Active”, the Tmax [15] was 0.83 h and the Cmax [16] was 2090 ng/mL. It also gave a half-life [17] of 5.14 h, an AUC(0-inf) [18] of 14700 ng·h/mL and an MRT inf [19] of 11.4 h.
Molecule `C/C(=C\Cc1c(O)ccc2c1OC(c1ccc(Cl)cc1)CC2=O)C(=O)O` (stereo not given) has an IC50 [1] of 2860 nM.
Work on `CC(C)=CCc1c(O)ccc2c1OC(c1cccs1)CC2=O` (stereo not given) yielded an inhibition at 5 µM [20] of 19.8%.
In the case of `C/C(=C\Cc1c(O)ccc2c1OC(c1ccc(Br)cc1)CC2=O)C(=O)O` (stereo not given), the IC50 [1] is reported as 830 nM.
For `CC(C)=CCc1c(O)ccc2c1OC(c1ccc(Br)cc1)CC2=O` (stereo not given), the inhibition at 5 µM [20] was 32.2%.
Work on `O=C(O)/C=C/Cc1c(O)ccc2c1OC(c1cccs1)CC2=O` (stereo not given) yielded an IC50 [1] of 2180 nM.
In the case of `CC(C)=CCc1c(O)ccc2c1OC(c1cccc(F)c1)CC2=O` (stereo not given), the inhibition at 5 µM [20] is reported as 22.7%.
With `O=C(O)/C=C/Cc1cccc2c1OC(c1ccsc1)CC2=O` (stereo not given) the IC50 [1] was 3590 nM.
`O=C(O)C/C=C/Cc1c(O)ccc2c1OC(c1csc3ccccc13)CC2=O` (stereo not given) showed an IC50 [1] of 650 nM.
Molecule `CC(C)=CCc1c(O)ccc2c1OC(c1ccsc1)CC2=O` (stereo not given) has an inhibition at 5 µM [20] of 72.3%.
Molecule `O=C(O)CCCc1c(O)ccc2c1OC(c1cccs1)CC2=O` (stereo not given) has an IC50 [1] of 2410 nM.
`CC(C)=CCc1c(O)ccc2c1OC(c1csc3ccccc13)CC2=O` (stereo not given) gave an inhibition at 5 µM [20] of 32%.
